The text below walks through data of US20260354380A1, “PYRAZOLO PESTICIDAL COMPOUNDS” (BASF SE, priority 2022, published 2026).

What all share (type): in vivo
In series [1] the test system is Plutella xylostella. Briefly: Action on Diamond Back Moth (Plutella xylostella), cabbage leaf dip, 3rd instar larvae. Conditions: 300 ppm; 3rd instar larvae; 72 hours after treatment. In a few lines: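 Cabbage leaves dipped in compound solution (1:1 water:acetone, 0.01% v/v surfactant), air-dried, then infested with ten 3rd-instar larvae in petri dishes on moist filter paper. Mortality scored at 72 h after treatment; feeding damage rated on a 0–100% scale.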

The subject of another series is Bemisia argentifolii. Kind of series: Action on Silverleaf Whitefly (Bemisia argentifolii) (Adults). Conditions: 300 ppm, 3 days after treatment. The procedure:
Example B4: Action on Silverleaf Whitefly (Bemisia argentifolii) (Adults)
The active compounds were formulated by a Tecan liquid handler in 100% cyclohexanone as a 10,000 ppm solution supplied in tubes. The 10,000 ppm solution was serially diluted in 100% cyclohexanone to make interim solutions. These served as stock solutions for which final dilutions were made by the Tecan in 50% acetone: 50% water (v/v) into 5 or 10 ml glass vials. A nonionic surfactant (Kinetic®) was included in the solution at a volume of 0.01% (v/v). The vials were then inserted into an automated electrostatic sprayer equipped with an atomizing nozzle for application to plants/insects.
Cotton plants at the cotyledon stage (one plant per pot) were sprayed by an automated electrostatic plant sprayer equipped with an atomizing spray nozzle. The plants were dried in the sprayer fume hood and then removed from the sprayer. Each pot was placed into a plastic cup and about 10 to 12 whitefly adults (approximately 3-5 days old) were introduced. The insects were collected using an aspirator and a nontoxic Tygon® tubing connected to a barrier pipette tip. The tip, containing the collected insects, was then gently inserted into the soil containing the treated plant, allowing insects to crawl out of the tip to reach the foliage for feeding. […] Mortality was assessed 3 days after treatment, compared to untreated control plants.

In another series the test system is Dichromothrips corbetti. Kind of series: Action on Orchid Thrips (Dichromothrips corbetti). As to conditions: 300 ppm; adults; 72 hours after treatment. Here is the method: Example B2: Action on Orchid Thrips (Dichromothrips corbetti)
Dichromothrips corbetti adults used for bioassay were obtained from a colony maintained continuously under laboratory conditions. For testing purposes, the test compound is diluted in a 1:1 mixture of acetone: water (vol: vol), plus Kinetic® HV at a rate of 0.01% v/v.
Thrips potency of each compound was evaluated by using a floral-immersion technique. All petals of individual, intact orchid flowers were dipped into treatment solution and allowed to dryin Petri dishes. Treated petals were placed into individual re-sealable plastic along with about 20 adult thrips. All test arenas were held under continuous light and a temperature of about 28 °C for duration of the assay. After 3 days, the numbers of live thrips were counted on each petal. The percent mortality was recorded 72 hours after treatment.

Another series has as its system Anthonomus grandis. Briefly: Action on Boll Weevil (Anthonomus grandis). As to conditions: 800 ppm; egg and larval mortality; 5 days. The method, boiled down:
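Compounds in 75:25 water:DMSO sprayed at several concentrations onto insect diet in microtiter wells holding 5-10 eggs, two replicates. Plates kept 5 days at about 25±1 °C and 75±5% RH; egg and larval mortality scored visually.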

A further series relates to Heliothis virescens. Kind of series: Action on Tobacco Budworm (Heliothis virescens). Conditions: 800 ppm; egg and larval mortality; 5 days. The method, boiled down:
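Compounds in 25% DMSO/75% water were sprayed at several concentrations onto insect diet in microtiter wells holding 15-25 eggs, two replications. After 5 days at about 28±1 °C and 80±5% RH, egg and larval mortality was scored visually.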

In another series the test system is Aedes aegypti. Kind of series: whole plant or invertebrate. Conditions: 800 ppm; larvae; 2 days. The method, boiled down: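 Freshly hatched larvae (5-15 per well) were held in tap water, and compounds formulated in 25% DMSO/water were sprayed onto diet at several concentrations in duplicate. Larval mortality was scored visually after 2 days at 28±1 °C, 80±5% RH.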

The test system of a further series is Spodoptera eridania. Kind of series: Action on Southern Armyworm (Spodoptera eridania), 2nd Instar Larvae. As to conditions: 300 ppm; 2nd instar larvae; 4 days after treatment. In a few lines:
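Compounds in 50% acetone/water with 0.01% nonionic surfactant sprayed electrostatically onto Lima bean plants at 1st true leaf stage. After drying, 10–11 2nd-instar larvae bagged with each pot, kept about 25 °C, 20–40% RH. Mortality and reduced feeding scored at 4 days vs untreated plants.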

Series [2] deals with Plutella xylostella. Briefly: Action on Diamond Back Moth (Plutella xylostella), microtiter plates, insect diet, eggs. As to conditions: 800 ppm; egg and larval mortality; 5 days. The method, boiled down:
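Diet in 96-well plates with 15–25 P. xylostella eggs, sprayed with compound formulated in 75% water/25% DMSO at several concentrations, two replicates; mixtures combined in equal volumes. Incubated 5 days at 28±1 °C, 80±5% RH, then egg and larval mortality scored visually.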

With `Cc1ccc(C(C)C)c(N2C(=O)CS/C2=N\C(=O)Nc2ccc(-n3cc(NC(=O)c4ccc(OC(F)(F)F)cc4)c(C)n3)cc2F)c1` [Example C-6], the “mortality in comparison with untreated controls” value (“mortality in comparison” below) with Plutella xylostella [1] is “at least 75%”; in the series with Bemisia argentifolii it was “at least 75%”; with Dichromothrips corbetti, “at least 75%”; in the series on Anthonomus grandis it was “at least 75%”; with Heliothis virescens it was “at least 75%”; in the series with Aedes aegypti, “at least 50%”. In the series with Spodoptera eridania, the “mortality in comparison” value is given as “at least 75%”.

On to `Cc1ccc(C(C)C)c(NC(=S)NC(=O)Nc2ccc(-n3nc(C)c(NC(=O)c4ccc(OC(F)(F)F)cc4)c3C)cc2Cl)c1` [Example C-125], for which the “mortality in comparison” value with Dichromothrips corbetti is recorded as “at least 75%”; in the series on Anthonomus grandis it was “at least 75%”; with Plutella xylostella [2], “at least 75%”; in the series with Heliothis virescens, “at least 75%”; with Aedes aegypti, “at least 50%”; in the series with Spodoptera eridania, “at least 75%”.
